US20220220041A1, “USE OF UREA AS AN ANTIMICROBIAL ADDITIVE IN AN AQUEOUS SUSPENSION” (Omya International AG, priority 2019, published 2022)

What was measured:
Type in all cases: cell-based
[1] = system: non-sterile calcium carbonate slurry (H90), environmental bacteria; experiment: Example 1 preservation efficacy: sterile H90 slurry with dry urea, up to three inoculations with non-sterile H90 slurry, TVC; details: for TVC cfu/ml 2nd Inoculation / TVC cfu/ml 3rd Inoculation / TVC cfu/ml 1st Inoculation: calcium carbonate 75%, water 25% w/w, H90 slurry; for TVC cfu/ml 1st Inoculation: 3 days at 30° C. after inoculation
Description: (§1) All quoted bacterial counts (Total viable counts (TVC) values), unless otherwise indicated, are given in cfu/ml and determined after at least 2 days following plate-out and incubation at 30° C. and in accordance with the counting method described in “Bestimmung von aerobe mesophilen Keimen”, Schweizerisches Lebensmittelbuch, chapter 56, section 7.01, edition of 1985, revised version of 1988.
(§2) Unless otherwise stated, per tryptic soy agar plate (TSA, prepared using BD 236950) 0.1 ml of a solution or suspension is plated. Counts from 10000 cfu/ml to 99999 cfu/ml are reported as >1E4 cfu/ml. Counts from 100000 cfu/ml to 999999 cfu/ml are reported as >1E5 cfu/ml. Counts above 1000000 cfu/ml are reported as >1E6 cfu/ml.
(§3) Non-sterile slurries (H60 or H90) contain contamination with environmental bacteria at a TVC>100000 cfu/ml. The contamination originates spontaneously and a bacterial burden of at least>100000 cfu/ml is confirmed prior use as inoculum by TVC. The following bacterial species are known to occur, as identified by 16S RNA sequencing or MALDI-TOF-MS analysis: Rhizobium radiobacter, Brevundimonas intermedia, Brevundimonas diminiuta, Sphingomonas sp., Pseudomonas stutzeri, Pseudomonas sp., Comomonas aquatic.
50 g sterile slurry H90 with a solid content of 75 wt.-%, based on the total weight of the H90 slurry is supplemented with different concentrations of dry urea. The samples are then stored for 3 days at 30° C. After the storage, the samples are inoculated with 1 ml non-sterile calcium carbonate slurry (H90), incubated for 3 days at 30° C. and the TVC is determined. Samples are further inoculated with 1 ml non-sterile calcium carbonate slurry (H90). Up to three inoculations are performed.

[2] = system: Escherichia coli (DSMZ 46295); experiment: Example 2 preservation efficacy: H60 slurry with 61 wt.-% urea solution, E. coli inoculum, TVC
Description: as §1, §2
For the preparation of inoculum with a single bacterial species (for example Escherichia coli (DSMZ 46295) or Pseudomonas putida), bacteria are spread onto Tryptic soy broth agar (BD, 236950) by dilution streaking followed by incubation at 30° C. for at least 24 h until colonies appear. Overnight cultures are generated by inoculation of 3 ml Tryptic soy broth (Fluka 22092) with a single colony followed incubation with agitation at […] at 30° C. for 24 h.
(§4) 50 g sterile slurry H60 with a solid content of 76.5 wt.-%, based on the total weight of the H60 slurry is supplemented with different amounts of 61 wt.-% urea solution or water. The samples are then inoculated with 1 ml non-sterile calcium carbonate slurry (H60), 1 ml non-sterile calcium carbonate slurry (H90), 0.02 ml overnight culture of Escherichia coli (DSMZ 46295) and 0.02 ml overnight culture of Pseudomonas putida. The control samples are not inoculated. Samples are incubated at 30° C. and the TVC and pH are determined at various time points (0 day, 1 day, 4, days, 8 days, 9 days and/or 13 days).

[3] = system: non-sterile calcium carbonate slurry (H90), environmental bacteria; experiment: Example 2 preservation efficacy: H60 slurry with 61 wt.-% urea solution, non-sterile H90 inoculum, TVC; details: 30° C.
Description: as §1, §2, §3, §4

[4] = system: non-sterile calcium carbonate slurry (H60), environmental bacteria; experiment: Example 3 preservation efficacy: H60 slurry with industrial grade urea solution, non-sterile H60 inoculum, TVC; details: industrial grade urea 5.5%, calcium carbonate 69%, water 25.5% w/w, 30° C.
Description: as §1, §2, §3
(§5) 50 g sterile calcium carbonate slurry (H60) with a solid content of 77.3 wt.-%, based on the total weight of the H60 slurry is supplemented with industrial grade 50% (w/w) urea solution (Yara Canda Inc.) or water to different final concentrations. The industrial grade contained natural resident (i.e. bacteria in a non-growing state) bacteria. The bacterial of the industrial urea burden is 5 cfu/3 ml as determined by TVC. The species are identified by characterizing the grown colonies from the TVC by 16 S RNA sequencing, known to the person skilled in the art.
(§6) The samples are further artificially inoculated with 1 ml non-sterile calcium carbonate slurry (H60), 1 ml non-sterile calcium carbonate slurry (H90), 0.02 ml overnight culture of Escherichia coli (DSMZ 46295) and 0.02 ml overnight culture Pseudomonas putida. The control sample are not inoculated. […]

[5] = system: non-sterile calcium carbonate slurry (H90), environmental bacteria; experiment: Example 3 preservation efficacy: H60 slurry with industrial grade urea solution, non-sterile H90 inoculum, TVC; details: industrial grade urea 5.5%, calcium carbonate 69%, water 25.5% w/w, 30° C.
Description: as §1, §2, §3, §5, §6

[6] = system: non-sterile calcium carbonate slurry (H60), environmental bacteria; experiment: Example 4 preservation efficacy: H60 slurry with 61% (w/w) urea solution, non-sterile H60 inoculum, TVC; details: 30° C.
Description: as §1, §2, §3
50 g sterile calcium carbonate slurry (H60) with a solid content of 78.3 wt.-%, based on the total weight of the H60 slurry are supplemented with 61% (w/w) urea solution to different final concentrations. The samples are inoculated with 1 ml non-sterile calcium carbonate slurry (H60). Samples are incubated at 30° C. and TVC and pH are determined at various time points (0 day, 1 day, 4, days, 11 days).

[7] = Table 2, urea 2.75%, calcium carbonate 73.1%, water 24.15% w/w, inoculum E. coli, 30° C.
[8] = Table 2, urea 7.6%, calcium carbonate 67.1%, water 25.3% w/w, inoculum E. coli, 30° C.
[9] = Table 3, urea 0.65%, calcium carbonate 75.7%, water 23.65% w/w, inoculum E. coli, 30° C.
[10] = Table 3, urea 1.28%, calcium carbonate 74.9%, water 23.82% w/w, inoculum E. coli, 30° C.
[11] = Table 3, urea 2.75%, calcium carbonate 73.1%, water 24.15% w/w, inoculum E. coli, 30° C.
[12] = Table 2, urea 2.75%, calcium carbonate 73.1%, water 24.15% w/w
[13] = Table 2, urea 7.6%, calcium carbonate 67.1%, water 25.3% w/w
[14] = Table 3, urea 0.65%, calcium carbonate 75.7%, water 23.65% w/w
[15] = Table 3, urea 2.75%, calcium carbonate 73.1%, water 24.15% w/w
[16] = urea 0.40%, calcium carbonate 75.61%, water 23.99% w/w
[17] = urea 1.10%, calcium carbonate 75.48%, water 23.42% w/w
[18] = urea 2.80%, calcium carbonate 75.21%, water 21.98% w/w

NC(N)=O [urea]
>1E6 cfu/ml: TVC cfu/ml 2nd Inoculation ([1]; urea 0.025%) | TVC cfu/ml 3rd Inoculation ([1]; urea 0.025%) | TVC cfu/ml 1st Inoculation ([1]; urea 0.025%) | TVC cfu/ml 2nd Inoculation ([1]; urea 0.05%) | TVC cfu/ml 3rd Inoculation ([1]; urea 0.05%) | TVC cfu/ml 1st Inoculation ([1]; urea 0.05%) | TVC cfu/ml 2nd Inoculation ([1]; urea 0.075%) | TVC cfu/ml 3rd Inoculation ([1]; urea 0.075%) | TVC cfu/ml 1st Inoculation ([1]; urea 0.075%)
>1E4 cfu/ml: TVC cfu/ml Day 1 [5] | TVC cfu/ml Day 1 [6, 18]
600 cfu/ml: TVC cfu/ml Day 4 [6, 18]
500 cfu/ml: TVC cfu/ml Day 8 [2, 7]
<100 cfu/ml: TVC cfu/ml Day 1 [2, 7] | TVC cfu/ml Day 4 [2, 7] | TVC cfu/ml Day 13 [2, 7] | TVC cfu/ml Day 1 [2, 8] | TVC cfu/ml Day 4 [2, 8] | TVC cfu/ml Day 8 [2, 8] | TVC cfu/ml Day 1 [2, 10] | TVC cfu/ml Day 4 [2, 10] | TVC cfu/ml Day 1 [2, 11] | TVC cfu/ml Day 4 [2, 11] | TVC cfu/ml Day 9 [2, 11] | TVC cfu/ml Day 1 [3, 12] | TVC cfu/ml Day 4 [3, 12] | TVC cfu/ml Day 8 [3, 12] | TVC cfu/ml Day 13 [3, 12] | TVC cfu/ml Day 1 [3, 13] | TVC cfu/ml Day 4 [3, 13] | TVC cfu/ml Day 8 [3, 13] | TVC cfu/ml Day 13 [3, 13] | TVC cfu/ml Day 1 [3, 15] | TVC cfu/ml Day 4 [3, 15] | TVC cfu/ml Day 9 [3, 15] | TVC cfu/ml Day 4 [4] | TVC cfu/ml Day 8 [4] | TVC cfu/ml Day 11 [4] | TVC cfu/ml Day 13 [4] | TVC cfu/ml Day 8 [5] | TVC cfu/ml Day 11 [5] | TVC cfu/ml Day 13 [5] | TVC cfu/ml Day 11 [6, 18]
not able to preserve: preservation of calcium carbonate slurries from bacterial growth ([1]; low urea concentrations (table 1: 0.025-0.075%))
100 cfu/ml: TVC cfu/ml Day 13 [2, 8]
300 cfu/ml: TVC cfu/ml Day 4 [5]
>1E5 cfu/ml: TVC cfu/ml Day 1 [2, 9] | TVC cfu/ml Day 4 [2, 9] | TVC cfu/ml Day 1 [3, 14] | TVC cfu/ml Day 4 [3, 14] | TVC cfu/ml Day 4 [6, 16] | TVC cfu/ml Day 11 [6, 16] | TVC cfu/ml Day 1 ([6]; urea 0.40%, calcium carbonate 75.61%, water 23.99% w/w, detection limit 100 cfu/ml) | TVC cfu/ml Day 1 [6, 17] | TVC cfu/ml Day 4 [6, 17] | TVC cfu/ml Day 11 [6, 17]
at least 13 days: preservation of calcium carbonate slurries from bacterial growth, duration ([2]; high urea concentrations, summary of tables 2 and 3, all inocula)
